Results taken from patent US20100286247A1, “Methods of Protection from Oxidative Stress” (Trustees of Boston University, priority 2005, published 2010).
{P} = phosphate

Assays:
GPX mRNA = experiment: Northern blot analysis of antioxidant enzyme mRNA: GPX; type: cell-based, human; details: 100 μM pTT, 8-72 hours
Procedure: Cell culture followed previously published methods.^92 Primary human newborn dermal fibroblasts were cultured from neonatal circumcised foreskin specimens. The skin samples were treated overnight in a 0.25% trypsin solution at 4° C. to separate the epidermis from the dermis. The separated dermis was then cut into pieces and plated onto etched plastic tissue culture dishes. Primary culture medium consisted of DMEM supplemented with 10% bovine CS, 50 U/ml penicillin and 50 μg/ml streptomycin sulfate. […] Secondary culture medium consisted of DMEM supplemented with 10% CS.
Purified 5′-phosphorylated thymidine dinucleotides (pTT) (Midland Certified Reagents, Inc., Texas) purified by gel filtration and analyzed by mass spectroscopy, were obtained in lyophilized form. […] The stock solution was syringe filter-sterilized through a 0.2 μm pore filter and spectrophotometrically analyzed (absorbance at 260 and 280 nm) to determine the concentration, and frozen in aliquots at −20° C. […]
Cells were harvested in Trizol (Gibco BRL, Gaithersburg, Md.) and stored at −70° C. […] RNA solutions were measured by spectrophotometer readings at 260 nm and 280 nm to determine concentration and purity. […]
Northern and western films as well as stained membranes and pictures of ethidium bromide-stained gels were digitally scanned and analyzed by densitometry. […]

[1] = system: extracellular H2O2 from newborn fibroblasts; experiment: Extracellular hydrogen peroxide generation assay (horseradish peroxidase); type: cell-based, human; details: 100 μM, two days treatment
Procedure: This assay was described by Ruch et al. for measurement of H2O2 production by macrophages and neutrophils^93 and modified for cultured cytokine-stimulated human lung fibroblasts by Thannickal et al.^94 Briefly, it utilizes horseradish peroxidase (HRP) to catalyze H2O2-dependent dimerization of tyrosine in homovanillic acid (HVA), where the H2O2 is the extracellular fraction of H2O2 produced by stimulated cells. Fibroblasts were seeded at 0.5×10^4 cells/cm^2 and treated the following day with diluent, 100 μM pTT, 100 μM pAA, 40 μM TO or 40 μM TOC1 for two days. These doses were determined in previous studies to be the optimal effective doses to achieve p53 induction and cell cycle arrest in fibroblasts within the parameters used in these investigations (cell seeding density and time of treatment).^13,142 An assay medium consisting of sterile Hanks' Balanced Salt Solution (HBSS), HRP (5 U/ml) and HVA ([…]) was added to cells after removal of the T-oligo-supplemented medium. […] Each sample was fluorometrically analyzed by excitation of the dimerized tyrosine product at 323 nm with emission measured at 423 nm (Perkin-Elmer LS-5B Luminescence Spectrometer). The same cells were then harvested and counted by Coulter Counter. […] Using the cell count results, H2O2 production was expressed as a function of time and cell number (pmol/min/million cells). […]

p21/Cip1/Waf1 protein = experiment: Western blot of p21/Cip1/Waf1; type: cell-based, human; details: by 36-48 hours, sustained through 72 hours; 40 μM TO, 100 μM pTT
Procedure: Western blot analysis of proteins from cells treated and harvested in parallel with DCF time course studies was conducted as described above. Membranes were reacted with antibodies to total p53/DO-1 (1:1000 dilution, Oncogene Research Products, Cambridge, Mass.), anti-phoso-p53 (Ser-15) (1:1000 dilution, Cell Signaling Technology, Beverly, Mass.), and p21/Cip1/Waf1 (1:500 dilution, Transduction Laboratories, Lexington, Ky.), followed by appropriate secondary antibodies diluted 1:2000.

tumor formation = details: nude mice repeatedly exposed to solar simulated UV; cited from earlier work

Row | Substance | GPX mRNA level compared to diluent (GPX mRNA) | extracellular H2O2 production [1] | p21 protein response, TO vs pTT (p21/Cip1/Waf1 protein) | incidence of tumor formation (tumor formation)
1 | 5′-phosphorylated thymidine dinucleotides [pTT] | remain unchanged | does not yield extracellular H2O2 |  | 
2 | pGTTAGGGTTAG (5' {P}, sugars by position and backbone not given here) [TO] |  |  | greater than to pTT | decreased the incidence of tumor formation
